Results taken from US20250082630A1, “METHODS OF TREATING BRAIN TUMOURS AND NEUROBLASTOMAS” (AstraZeneca AB, priority 2021, published 2025).
Where two headings read alike, the source gives them in different places.

Experiments:
[1] = test system: MDCKII cells expressing MDR1 and BCRP; assay: In vitro human transporter efflux (MDCK-MDR1-BCRP); conditions: Papp(B to A)/Papp(A to B), 90-min incubation
Method: (§2) MDCKII cells expressing MDR1 and BCRP were seeded onto polyethylene membranes in 96-well Transwell insert systems at a density to form a confluent cell monolayer. […] The final percent volume of the organic solvent was less than 1%. Permeation of the test compounds from A to B direction and from B to A direction was determined over a 90-min incubation at 37° C. and 5% CO2 with a relative humidity of 95%. At the end of the incubation, samples from the apical and basolateral side were taken and then precipitated with cold acetonitrile containing internal standard. After centrifugation at 4000 rpm, the supernatant was diluted with 0.1% formic acid aqueous solution and quantified by LC-MS/MS. The integrity of the cell monolayers was confirmed by using the marker Lucifer yellow.
(§3) The permeability coefficient (1×10-6 cm/s) was calculated using the following equation
(§4) (1) The Efflux Ratio was Calculated Using the Following Equation
Efflux ratio=Papp(B to A)/Papp(A to B)
(§5) (2) where dCr/dt is the cumulative concentration of the compound in the receiver chamber as a function of time (in μM/s); Vr is the solution volume in the receiver chamber (0.1 ml on the apical side and 0.3 ml on the basolateral side); A is the surface area for the transport, that is, 0.11 cm2 for the area of the monolayer; and C0 is the initial concentration in the donor chamber (in μM).

PARP6 = PARP6 (Homo sapiens (Human), UniProt Q2NL67); assay: PARP fluorescence anisotropy binding assay, PARP6
Method: Recombinant full length GST tagged PARP6 protein was diluted to 160 nM with 50 mM Tris pH 8, 0.001% Triton X100, 10 mM MgCl2, 150 mM NaCl and incubated for four hours with an equivalent volume of 6 nM fluorescent probe diluted with 50 mM Tris pH 8, 0.001% Triton X100, 10 mM MgCI2, 150 mM NaCl. The final DMSO concentration of the probe was kept below 1% (v/v).
Fluorescence anisotropy of the probe when bound to the proteins was measured using a BMG Pherastar FSX® in the presence of test compounds or solvent control and the effect on anisotropy determined. % inhibition values for different test compound concentrations were calculated and fitted to a four parameter logistic plot in order to determine the IC50 value. Where necessary, the compound K, can be determined from the IC50 value using a Munson Rodbard equation defined in Anal Biochem. 1980 Sep. 1; 107(1):220-39 and is based on the known KD of the probe binding to the relevant PARP protein

PARP1 = PARP1 (Homo sapiens (Human), UniProt P09874); assay: PARP fluorescence anisotropy binding assay, PARP1
Method: Recombinant full length 6HIS tagged PARP1 protein was diluted to 6 nM with 50 mM Tris pH 8, 0.001% Triton X100, 10 mM MgCl2, 150 mM NaCl and incubated for four hours with an equivalent volume of 2 nM fluorescent probe diluted with 50 mM Tris pH 8, 0.001% Triton X100, 10 mM MgCl2, 150 mM NaCl. The final DMSO concentration of the probe was kept below 1% (v/v).

BRCA2 (−/−) DLD1 cells = assay: PARP proliferation assay (7 day compound dosing), BRCA2 (−/−) DLD1; type: cell-based; conditions: read-out: BRCA2 −/− DLD-1 prolif. 7 d IC50
Method: (§1) DLD1 and BRCA2 (−/−) DLD1 cells were harvested to a density of 5000 cells/ml and 2.5E4 cells/ml respectively in complete media, 40 μL/well seeded into 384-well plates (Greiner, Kremsmunster, Austria; 781090) using a Multidrop Combi then incubated at 37° C., 5% CO2 overnight. Next day (Day 1) using a Multidrop Combi add sytox green (5ul, 2 uM) and saponin (10 ul, 0.25% stock) to a day 0 plate, seal the plate using a black adhesive lid and incubate for >3 h at it. Cells were imaged using Cell Insight (Thermo Fisher) fitted with a 4x objective. Test compounds are added using an Echo 555 and placed in incubator maintained at 37° C., 5% CO2 and incubated for 7 days. On Day 8 add sytox green (5ul, 2 uM) and then saponin (10 ul, 0.25% stock) to plates, seal the plate using a black adhesive lid and incubate for >3 h at it. Read all cells on the Cell Insight with 4× Objective. The rate of proliferation is determined in Genedata by assessing the total cell number output from the Cell Insight for Day 0 and Day 8 plates.

PARP5a = PARP5a (Homo sapiens (Human), UniProt O95271); assay: PARP fluorescence anisotropy binding assay, PARP5a
Method: Recombinant PARP5a binding domain was diluted to 160 nM with 50 mM Tris pH 8, 0.001% Triton X100, 10 mM MgCl2, 150 mM NaCl and incubated for four hours with an equivalent volume of 6 nM fluorescent probe diluted with 50 mM Tris pH 8, 0.001% Triton X100, 10 mM MgCl2, 150 mM NaCl. The final DMSO concentration of the probe was kept below 1% (v/v).

hERG [2] = target: T1, hERG (Homo sapiens (Human), UniProt Q12809); assay: hERG IC50; conditions: read-out: hERG IC50
PARP3 = PARP3 (Homo sapiens (Human), UniProt Q9Y6F1); assay: PARP fluorescence anisotropy binding assay, PARP3
Method: Recombinant full length PARP3 protein was diluted to 100 nM with 50 mM Tris pH 8, 0.001% Triton X100, 10 mM MgCl2, 150 mM NaCl and incubated for four hours with an equivalent volume of 6 nM fluorescent probe diluted with 50 mM Tris pH 8, 0.001% Triton X100, 10 mM MgCl2, 150 mM NaCl. The final DMSO concentration of the probe was kept below 1% (v/v).

PARP2 = PARP2 (Homo sapiens (Human), UniProt Q9UGN5); assay: PARP fluorescence anisotropy binding assay, PARP2
In short: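 Recombinant full-length human PARP2 (6 nM before mixing) incubated 4 h with equal volume of 2 nM fluorescent probe in 50 mM Tris pH 8, 10 mM MgCl2, 150 mM NaCl, 0.001% Triton X100. Compound displacement measured as change in probe fluorescence anisotropy; IC50 from four-parameter logistic fit.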

hERG [3] = target: T1, hERG
DLD1 cells = assay: PARP proliferation assay (7 day compound dosing), WT DLD1; type: cell-based; conditions: read-out: WT DLD-1 prolif. 7 d IC50
Method: as §1

[4] = test system: MDCKII cells expressing MDR1 and BCRP
Method: as §2, §3, §4
Efflux ratio=Papp(B to A)/Papp(A to B)
as §5

[5] = 30 mg/m^2 per day, days 1, 2 and 3 every 21 days, in combination with radiation therapy; cited from earlier work

Sequence of PARP1 (P09874 whole entry): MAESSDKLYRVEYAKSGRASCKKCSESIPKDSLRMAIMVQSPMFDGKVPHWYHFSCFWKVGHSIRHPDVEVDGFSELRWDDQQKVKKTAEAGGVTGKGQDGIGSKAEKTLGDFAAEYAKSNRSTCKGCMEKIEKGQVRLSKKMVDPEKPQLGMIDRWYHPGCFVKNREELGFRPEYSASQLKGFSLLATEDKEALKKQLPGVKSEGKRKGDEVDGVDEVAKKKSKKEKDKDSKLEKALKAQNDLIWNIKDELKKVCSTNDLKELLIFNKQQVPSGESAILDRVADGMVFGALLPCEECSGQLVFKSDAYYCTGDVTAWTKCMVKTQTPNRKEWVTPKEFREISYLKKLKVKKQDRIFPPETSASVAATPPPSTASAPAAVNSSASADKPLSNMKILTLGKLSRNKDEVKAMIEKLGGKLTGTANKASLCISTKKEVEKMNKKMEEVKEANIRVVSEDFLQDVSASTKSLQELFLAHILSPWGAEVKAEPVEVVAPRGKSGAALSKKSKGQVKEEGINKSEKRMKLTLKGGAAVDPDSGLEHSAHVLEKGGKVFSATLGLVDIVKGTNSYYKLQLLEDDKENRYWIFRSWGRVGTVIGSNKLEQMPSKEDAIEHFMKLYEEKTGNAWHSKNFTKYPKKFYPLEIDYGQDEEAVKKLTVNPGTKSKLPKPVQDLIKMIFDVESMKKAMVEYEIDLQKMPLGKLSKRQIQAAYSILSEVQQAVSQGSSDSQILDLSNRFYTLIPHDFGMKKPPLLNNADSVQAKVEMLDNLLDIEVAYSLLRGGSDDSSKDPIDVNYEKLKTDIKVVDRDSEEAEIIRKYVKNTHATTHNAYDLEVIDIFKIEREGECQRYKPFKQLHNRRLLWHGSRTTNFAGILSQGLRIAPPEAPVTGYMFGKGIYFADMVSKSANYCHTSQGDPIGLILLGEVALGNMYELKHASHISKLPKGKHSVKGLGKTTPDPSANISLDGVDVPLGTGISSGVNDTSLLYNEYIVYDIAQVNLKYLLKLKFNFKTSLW
T1 sequence (Q12809 whole entry): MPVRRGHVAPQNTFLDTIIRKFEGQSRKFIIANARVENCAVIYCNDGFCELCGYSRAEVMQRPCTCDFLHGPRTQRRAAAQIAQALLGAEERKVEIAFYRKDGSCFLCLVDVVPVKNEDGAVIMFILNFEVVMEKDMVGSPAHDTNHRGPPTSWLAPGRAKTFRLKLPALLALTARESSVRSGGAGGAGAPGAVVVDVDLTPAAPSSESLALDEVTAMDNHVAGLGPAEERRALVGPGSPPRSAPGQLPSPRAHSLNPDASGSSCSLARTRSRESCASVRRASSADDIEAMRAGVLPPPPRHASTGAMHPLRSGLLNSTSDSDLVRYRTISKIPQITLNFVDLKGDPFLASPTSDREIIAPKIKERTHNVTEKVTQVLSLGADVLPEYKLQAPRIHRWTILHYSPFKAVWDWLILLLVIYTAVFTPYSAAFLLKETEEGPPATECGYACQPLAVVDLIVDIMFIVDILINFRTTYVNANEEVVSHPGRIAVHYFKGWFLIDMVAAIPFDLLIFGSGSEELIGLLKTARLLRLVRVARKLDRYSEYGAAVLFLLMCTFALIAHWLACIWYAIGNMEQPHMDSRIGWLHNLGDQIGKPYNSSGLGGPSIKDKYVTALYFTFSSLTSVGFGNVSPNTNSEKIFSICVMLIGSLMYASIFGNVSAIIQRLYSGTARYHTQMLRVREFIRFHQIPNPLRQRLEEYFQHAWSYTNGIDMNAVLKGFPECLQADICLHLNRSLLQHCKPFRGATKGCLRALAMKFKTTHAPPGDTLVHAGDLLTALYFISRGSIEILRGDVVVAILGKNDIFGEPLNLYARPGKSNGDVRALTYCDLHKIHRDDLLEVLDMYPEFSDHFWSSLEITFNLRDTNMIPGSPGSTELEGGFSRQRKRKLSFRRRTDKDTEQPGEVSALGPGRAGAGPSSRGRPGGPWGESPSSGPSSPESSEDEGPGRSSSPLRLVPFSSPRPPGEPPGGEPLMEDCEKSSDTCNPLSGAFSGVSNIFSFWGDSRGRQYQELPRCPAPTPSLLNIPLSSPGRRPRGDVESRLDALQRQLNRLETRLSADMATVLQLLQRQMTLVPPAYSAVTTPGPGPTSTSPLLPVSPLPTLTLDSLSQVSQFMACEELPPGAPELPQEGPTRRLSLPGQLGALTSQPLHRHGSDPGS
Sequence of PARP6 (Q2NL67 whole entry): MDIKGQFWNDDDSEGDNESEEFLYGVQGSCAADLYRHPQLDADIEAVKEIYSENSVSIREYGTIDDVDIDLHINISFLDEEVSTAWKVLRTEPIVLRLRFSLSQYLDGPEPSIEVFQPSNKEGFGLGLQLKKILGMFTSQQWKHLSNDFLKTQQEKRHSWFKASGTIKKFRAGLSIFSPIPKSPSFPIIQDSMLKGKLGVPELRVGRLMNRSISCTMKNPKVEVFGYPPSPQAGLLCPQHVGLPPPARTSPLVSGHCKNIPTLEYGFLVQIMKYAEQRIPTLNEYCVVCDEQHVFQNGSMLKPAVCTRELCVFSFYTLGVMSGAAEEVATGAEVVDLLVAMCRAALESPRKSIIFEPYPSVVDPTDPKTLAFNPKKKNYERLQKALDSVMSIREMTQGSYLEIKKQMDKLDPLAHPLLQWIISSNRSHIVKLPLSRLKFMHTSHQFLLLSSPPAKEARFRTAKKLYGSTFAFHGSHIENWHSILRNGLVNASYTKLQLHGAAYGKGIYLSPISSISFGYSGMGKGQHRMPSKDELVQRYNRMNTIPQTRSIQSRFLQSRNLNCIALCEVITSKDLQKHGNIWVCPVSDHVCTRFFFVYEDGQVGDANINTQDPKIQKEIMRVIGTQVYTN
Sequence of PARP3 (Q9Y6F1 whole entry): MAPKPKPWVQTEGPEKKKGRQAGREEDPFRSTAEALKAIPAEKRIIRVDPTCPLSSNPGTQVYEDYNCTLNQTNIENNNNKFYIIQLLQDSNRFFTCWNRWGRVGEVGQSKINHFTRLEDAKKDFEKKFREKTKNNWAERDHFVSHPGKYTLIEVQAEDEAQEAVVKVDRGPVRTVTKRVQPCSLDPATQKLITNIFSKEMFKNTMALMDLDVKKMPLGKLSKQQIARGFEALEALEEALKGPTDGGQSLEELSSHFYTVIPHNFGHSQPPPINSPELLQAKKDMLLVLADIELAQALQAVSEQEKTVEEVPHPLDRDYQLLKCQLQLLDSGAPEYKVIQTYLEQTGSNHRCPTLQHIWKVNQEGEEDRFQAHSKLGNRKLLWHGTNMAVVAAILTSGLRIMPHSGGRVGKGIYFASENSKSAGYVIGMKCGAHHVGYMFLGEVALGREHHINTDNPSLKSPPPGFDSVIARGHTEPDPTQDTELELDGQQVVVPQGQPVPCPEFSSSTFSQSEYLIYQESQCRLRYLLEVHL
Sequence of PARP2 (Q9UGN5 whole entry): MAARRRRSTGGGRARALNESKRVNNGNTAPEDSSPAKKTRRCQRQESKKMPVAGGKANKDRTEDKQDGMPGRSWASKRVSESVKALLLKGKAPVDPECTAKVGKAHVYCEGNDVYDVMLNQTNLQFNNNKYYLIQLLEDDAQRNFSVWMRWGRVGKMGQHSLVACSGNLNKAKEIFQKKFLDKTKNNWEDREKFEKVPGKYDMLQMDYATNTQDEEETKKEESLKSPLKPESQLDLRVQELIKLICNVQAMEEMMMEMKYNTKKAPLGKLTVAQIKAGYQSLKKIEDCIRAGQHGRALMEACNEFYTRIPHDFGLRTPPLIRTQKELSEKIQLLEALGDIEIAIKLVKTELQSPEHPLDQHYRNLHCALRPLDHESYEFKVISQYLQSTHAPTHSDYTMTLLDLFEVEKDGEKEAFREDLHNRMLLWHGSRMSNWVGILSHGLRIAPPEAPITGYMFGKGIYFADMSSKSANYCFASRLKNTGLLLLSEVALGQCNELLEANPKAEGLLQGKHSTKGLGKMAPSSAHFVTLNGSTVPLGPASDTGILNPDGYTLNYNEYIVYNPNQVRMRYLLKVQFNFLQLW
Sequence of PARP5a (O95271 1112-1317): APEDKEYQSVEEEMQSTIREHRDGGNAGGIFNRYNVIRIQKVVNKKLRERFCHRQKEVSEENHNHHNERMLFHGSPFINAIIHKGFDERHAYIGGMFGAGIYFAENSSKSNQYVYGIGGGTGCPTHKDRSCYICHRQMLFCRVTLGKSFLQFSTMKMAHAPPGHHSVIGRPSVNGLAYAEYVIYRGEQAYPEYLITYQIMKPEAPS

| SMILES | MDCK-MDR1-BCRP Efflux Ratio [1] | IC50 (PARP6) [µM] | IC50 (PARP1) [µM] | IC50 (BRCA2 (−/−) DLD1 cells) [µM] | IC50 (PARP5a) [µM] | IC50 (hERG [2]) [µM] | IC50 (PARP3) [µM] | IC50 (PARP2) [µM] | IC50 (hERG [3]) [µM] | IC50 (DLD1 cells) [µM] | MDCK-MDR1-BCRP Efflux Ratio [4] | safety and tolerability [5] |
| --- | --- | --- | --- | --- | --- | --- | --- | --- | --- | --- | --- | --- |
| CNC(=O)c1ccc(N2CCN(Cc3ccc4nc([C@H](C)F)c(=O)[nH]c4c3F)CC2)c(F)n1 (single isomer, unassigned) [Example 12, 6-fluoro-5-[4-[[5-fluoro-2-[(1S OR 1R)-1-fluoroethyl]-3-oxo-4H-quinoxalin-6-yl]methyl]piperazin-1-yl]-N-methyl-pyridine-2-carboxamide] | 4.2 | > 100 | 0.015 | 0.008 | > 100 | > 40 | 85 |  |  |  |  |  |
| CNC(=O)c1ccc(N2CCN(Cc3ccc4nc([C@H](C)F)c(=O)[nH]c4c3F)CC2)c(F)n1 (single isomer, unassigned) [Example 13, 6-fluoro-5-[4-[[5-fluoro-2-[(1S OR 1R)-1-fluoroethyl]-3-oxo-4H-quinoxalin-6-yl]methyl]piperazin-1-yl]-N-methyl-pyridine-2-carboxamide] |  | > 100 | 0.009 | 0.019 | > 100 |  | 62 | > 100 | > 40 | 22 | 3.0 |  |
| CNC(=O)c1ccc(N2CCN(Cc3ccc4nc(C(C)F)c(=O)[nH]c4c3F)CC2)c(C)n1 (single isomer, unassigned) [Example 14, 5-[4-[[5-fluoro-2-[(1S OR 1R)-1-fluoroethyl]-3-oxo-4H-quinoxalin-6-yl]methyl]piperazin-1-yl]-N,6-dimethyl-pyridine-2-carboxamide] | 3.7 | > 100 | 0.013 | 0.015 | > 100 | > 40 | 52 | > 83 |  |  |  |  |
| CNC(=O)c1ccc(N2CCN(Cc3ccc4nc(C(C)F)c(=O)[nH]c4c3F)CC2)c(C)n1 (single isomer, unassigned) [Example 15, 5-[4-[[5-fluoro-2-[(1S OR 1R)-1-fluoroethyl]-3-oxo-4H-quinoxalin-6-yl]methyl]piperazin-1-yl]-N,6-dimethyl-pyridine-2-carboxamide] | 3.7 | > 100 | 0.012 | 0.014 | > 100 | > 38 | 43 | > 100 |  |  |  |  |
| O[C@H]([C@H](O)[C@@H]1CO1)[C@H]1CO1 [VAL-083, dianhydrogalactitol] |  |  |  |  |  |  |  |  |  |  |  | generally safe and well tolerated |
